US20160296529A1, “AMINOTRIAZOLOPYRIDINE FOR USE IN THE TREATMENT OF INFLAMMATION, AND PHARMACEUTICAL COMPOSITIONS THEREOF” (priority 2012, published 2016)
Read-outs that look alike come from different tables or passages of the source. One block for each molecule: values may come before it.

What was measured:
hepatocytes of rat = assay: In vitro metabolism study in hepatocytes, rat; assay type: in vitro ADME; conditions: rat hepatocyte suspension, 24 h incubation of 100 μM [14C]-Formula II
Method: (§1) Hepatocyte stability (Concentrations of the compound according to Formula II and its main metabolites (as % of total radioactivity) after 24 h incubation of 100 μM [^14C]-Compound according to Formula II in hepatocyte suspension of different species)

hepatocytes of mouse = assay: In vitro metabolism study in hepatocytes, mouse; assay type: in vitro ADME; conditions: mouse hepatocyte suspension, 24 h incubation of 100 μM [14C]-Formula II
Method: as §1

[1] = Repeated dose pharmacokinetics in human; assay type: in vivo; conditions: for Ratio I/II (AUC Formula I : AUC Formula II) / AUC: human, steady state; for half-life at 10 days: oral, human plasma, repeated dose of Formula II (25-100 mg BID or 200-450 mg QD) for 10 days, read-out: mean apparent terminal elimination half-life; for AUC: plasma, po, read-out: Exposure (expressed as AUC)
Method: Subjects received repeated dose (25, 50 and 100 mg BID or 200, 300 and 450 mg QD) of the compound according to Formula II as capsules after a standard breakfast for 10 days.
Serial blood samples were collected over 12 h (BID regimen) or 24 h (QD regimen) on day 1 and 10 to determine plasma concentrations of the compounds according to Formula II and Formula I using a validated liquid chromatography-mass spectrometry/mass spectrometry (LC-MS/MS) method with a limit of quantification of 1.00 ng/mL for both Formula. PK parameters were assessed using a statistical analysis package (WinNonLin (Pharsight, Sunnyvale, Calif.: CA 94086, USA).
Mean plasma concentration-time profiles of the compound according to Formula II and the compound according to Formula I were measured.
In order to show the comparative exposures of the two compounds, the AUC of the compounds according to Formula I and the compound according to Formula II were calculated. The AUC value represents the steady state exposure of the compounds after repeated dosing. The ratio of AUC of the compound according to Formula I:AUC of the compound according to Formula II is display in Table VII.

hepatocytes of human = assay: In vitro metabolism study in hepatocytes, human; assay type: in vitro ADME; conditions: human hepatocyte suspension, 24 h incubation of 100 μM [14C]-Formula II
Method: as §1

rat CIA model = assay: CIA model 1 (rat collagen induced arthritis, clinical score); assay type: in vivo, Dark Agouti rats; set-up: key to Rat CIA Clinical Score: sum of 4 paws, each 0 = no symptoms to 4 = maximal; max 16; conditions: for activity in the CIA rat model: dosed alone
Method: Complete Freund's adjuvant (CFA) and Incomplete Freund's adjuvant (IFA) were purchased from Difco. Bovine collagen type II (CII), lipopolysaccharide (LPS), and Enbrel® was obtained from Chondrex (Isle d'Abeau, France); Sigma (P4252, L'Isle d'Abeau, France), Whyett (25 mg injectable syringe, France), Acros Organics (Palo Alto, Calif.), respectively. All other reagents used were of reagent grade and all solvents were of analytical grade.
Dark Agouti rats (male, 7-8 weeks old) were obtained from Harlan Laboratories (Melderslo, Netherlands). Rats were kept on a 12 hr light/dark cycle (0700-1900). Temperature was maintained at 22° C., and food and water were provided ad libitum.
One day before the experiment, CII solution (2 mg/mL) was prepared with 0.05 M acetic acid and stored at 4° C. Just before the immunization, equal volumes of adjuvant (IFA) and CII were mixed by a homogenizer in a pre-cooled glass bottle in an ice water bath. Extra adjuvant and prolonged homogenization may be required if an emulsion was not formed. 0.2 mL of the emulsion was injected intradermally at the base of the tail of each rat on day 1, a second booster intradermal injection (CII solution at 2 mg/mL in CFA 0.1 mL saline) was performed on day 9. This immunization method was modified from published methods (Sims et al, 2004; Jou et al., 2005).
The therapeutic effects of the compounds were tested in the rat CIA model. Rats were randomly divided into equal groups and each group contained 10 rats. All rats were immunized on day 1 and boosted on day 9. Therapeutic dosing lasts from day 16 to day 30. The negative control group was treated with vehicle (MC 0.5%) and the positive control group with Enbrel® (10 mg/kg, 3× week., s.c.). A compound of interest was typically tested at 3 doses, e.g. 6, 10, 60 mg/kg, q.d., p.o.
Arthritis was scored according to the method of Khachigian 2006, Lin et al 2007 and Nishida et al. 2004). The swelling of each of the four paws was ranked with the arthritic score as follows: 0—no symptoms; 1—mild, but definite redness and swelling of one type of joint such as the ankle or wrist, or apparent redness and swelling limited to individual digits, regardless of the number of affected digits; 2—moderate redness and swelling of two or more types of joints; 3—severe redness and swelling of the entire paw including digits; 4—maximally inflamed limb with involvement of multiple joints (maximum cumulative clinical arthritis score 16 per animal) (Nishida et al., 2004).
To permit the meta-analysis of multiple studies the clinical score values were normalised as follows:
AUC of clinical score (AUC score): The area under the curve (AUC) from day 1 to day 14 was calculated for each individual rat. The AUC of each animal was divided by the average AUC obtained for the vehicle in the study from which the data on that animal was obtained and multiplied by 100 (i.e. the AUC was expressed as a percentage of the average vehicle AUC per study).
Clinical score increase from day 1 to day 14 (End point score): The clinical score difference for each animal was divided by the average clinical score difference obtained for the vehicle in the study from which the data on that animal was obtained and multiplied by 100 (i.e. the difference was expressed as a percentage of the average clinical score difference for the vehicle per study).

In vitro metabolic profile of Formula II (as % of total radioactivity) (hepatocytes of rat): 12% | In vitro metabolic profile of Formula II (as % of total radioactivity) (hepatocytes of mouse): 14% | Ratio I/II (AUC Formula I : AUC Formula II) ([1]; Formula II 25 mg BID): 24.4 | Ratio I/II (AUC Formula I : AUC Formula II) ([1]; Formula II 50 mg BID): 20.5 | Ratio I/II (AUC Formula I : AUC Formula II) ([1]; Formula II 100 mg BID): 18.3 | Ratio I/II (AUC Formula I : AUC Formula II) ([1]; Formula II 200 mg QD): 16.1 | Ratio I/II (AUC Formula I : AUC Formula II) ([1]; Formula II 300 mg QD): 15.0 | Ratio I/II (AUC Formula I : AUC Formula II) ([1]; Formula II 450 mg QD): 10.1 | half-life at 10 days [1]: 22 to 27 h | AUC ([1]; Formula II 25 mg BID): 8660 ng·h/mL | AUC ([1]; Formula II 50 mg BID): 15200 ng·h/mL | AUC ([1]; Formula II 100 mg BID): 41100 ng·h/mL | AUC ([1]; Formula II 200 mg QD): 70000 ng·h/mL | AUC ([1]; Formula II 300 mg QD): 66100 ng·h/mL | AUC ([1]; Formula II 450 mg QD): 102000 ng·h/mL | In vitro metabolic profile of Formula II (as % of total radioactivity) (hepatocytes of human): 11% | In vitro metabolic profile of Formula II (as % of total radioactivity) (hepatocytes of human; listed as drawing 11): 11.2%
Compound: Nc1nc2cccc(-c3ccc(CN4CCS(=O)(=O)CC4)cc3)n2n1 [Formula I, 5-[4-(1,1-Dioxothiomorpholin-4-ylmethyl)-phenyl]-[1,2,4]triazolo[1,5-a]pyridin-2-ylamine]
normalized clinical score values (calculated as AUC or as the difference from day 1 to day 14) (rat CIA model; 60 mg/kg): statistically significant improvements | Rat CIA Clinical Score (rat CIA model; Formula I 60 mg/kg, day 18): 2.9 | Rat CIA Clinical Score (rat CIA model; Formula I 60 mg/kg, day 19): 4.4 | Rat CIA Clinical Score (rat CIA model; Formula I 60 mg/kg, day 20): 5.0 | Rat CIA Clinical Score (rat CIA model; Formula I 60 mg/kg, day 21): 3.9 | Rat CIA Clinical Score (rat CIA model; Formula I 60 mg/kg, day 24): 4.5 | Rat CIA Clinical Score (rat CIA model; Formula I 60 mg/kg, day 25): 4.3 | Rat CIA Clinical Score (rat CIA model; Formula I 60 mg/kg, day 26): 3.8 | Rat CIA Clinical Score (rat CIA model; Formula I 60 mg/kg, day 27): 3.7 | Rat CIA Clinical Score (rat CIA model; Formula I 60 mg/kg, day 28): 3.3 | activity in the CIA rat model (rat CIA model): active

In vitro metabolic profile of Formula II (as % of total radioactivity) (hepatocytes of rat): at least 80% | In vitro metabolic profile of Formula II (as % of total radioactivity) (hepatocytes of rat; listed as drawing 10): 86% | In vitro metabolic profile of Formula II (as % of total radioactivity) (hepatocytes of mouse): at least 80% | In vitro metabolic profile of Formula II (as % of total radioactivity) (hepatocytes of mouse; listed as drawing 10): 85% | half-life at 10 days [1]: 4 to 11 h | AUC ([1]; Formula II 25 mg BID): 346 ng·h/mL | AUC ([1]; Formula II 50 mg BID): 758 ng·h/mL | AUC ([1]; Formula II 100 mg BID): 2380 ng·h/mL | AUC ([1]; Formula II 200 mg QD): 4450 ng·h/mL | AUC ([1]; Formula II 300 mg QD): 4400 ng·h/mL | AUC ([1]; Formula II 450 mg QD): 10200 ng·h/mL | In vitro metabolic profile of Formula II (as % of total radioactivity) (hepatocytes of human): at least 80% | In vitro metabolic profile of Formula II (as % of total radioactivity) (hepatocytes of human; listed as drawing 10): 88%
Compound: O=C(Nc1nc2cccc(-c3ccc(CN4CCS(=O)(=O)CC4)cc3)n2n1)C1CC1 [Formula II, Cyclopropanecarboxylic acid {5-[4-(1,1-dioxo-thiomorpholin-4-ylmethyl)-phenyl]-[1,2,4]triazolo[1,5-a]pyridin-2-yl}-amide]
Rat CIA Clinical Score (rat CIA model; Formula II 6 mg/kg, day 18): 3.0 | Rat CIA Clinical Score (rat CIA model; Formula II 6 mg/kg, day 19): 3.6 | Rat CIA Clinical Score (rat CIA model; Formula II 6 mg/kg, day 20): 4.2 | Rat CIA Clinical Score (rat CIA model; Formula II 6 mg/kg, day 21): 5.1 | Rat CIA Clinical Score (rat CIA model; Formula II 6 mg/kg, day 24): 5.2 | Rat CIA Clinical Score (rat CIA model; Formula II 6 mg/kg, day 25): 5.1 | Rat CIA Clinical Score (rat CIA model; Formula II 6 mg/kg, day 26): 4.9 | Rat CIA Clinical Score (rat CIA model; Formula II 6 mg/kg, day 27): 5.2 | Rat CIA Clinical Score (rat CIA model; Formula II 6 mg/kg, day 28): 5.4 | activity in the CIA rat model (rat CIA model): active
